Reference: ChEMBL document CHEMBL1201862, “PubChem BioAssay data set” (2004)
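These data come from cells grown in 96-well plates and exposed to compound for 48 hours at five concentrations. At the GI50, growth is halved.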 Activity calls are given as the source filed them. Rule as the data show it: active = GI50 up to about 1.1 µM and inactive = higher.

What was measured:
Experiment in all cases: NCI-60 cell line screen, 48 h
OVCAR-4 = tested on: OVCAR-4
SK-MEL-2 = tested on: SK-MEL-2
SK-MEL-28 = tested on: SK-MEL-28
EKVX = tested on: EKVX
DU-145 = tested on: DU-145
OVCAR-5 = tested on: OVCAR-5
U-251 = tested on: U-251
BT-549 = tested on: BT-549
SR = tested on: SR
IGROV-1 = tested on: IGROV-1
NCI-H522 = tested on: NCI-H522
K562 = tested on: K562
RPMI-8226 = tested on: RPMI-8226
SK-MEL-5 = tested on: SK-MEL-5
UACC-257 = tested on: UACC-257
HT-29 = tested on: HT-29
786-0 = tested on: 786-0
MOLT-4 = tested on: MOLT-4
HCC 2998 = tested on: HCC 2998
CCRF-CEM = tested on: CCRF-CEM

Measured: GI50

CN1CCc2nc(N)nc(-c3nc(N)nc4c3CN(C)CC4)c2C1
inactive: OVCAR-4 > 100 µM | SK-MEL-2 > 100 µM | SK-MEL-28 > 100 µM | EKVX > 100 µM | DU-145 > 100 µM | OVCAR-5 > 100 µM | U-251 > 100 µM | BT-549 > 100 µM | SR 33 µM | IGROV-1 > 100 µM | NCI-H522 > 100 µM | K562 75.9 µM | RPMI-8226 > 100 µM | SK-MEL-5 > 100 µM | UACC-257 > 100 µM | HT-29 > 100 µM | 786-0 > 100 µM | MOLT-4 > 100 µM

CCOP(=O)(OCC)/C(C#N)=C(\C)c1ccco1
inactive: OVCAR-4 > 10 µM | SK-MEL-2 > 10 µM | HCC 2998 > 10 µM | SK-MEL-28 > 10 µM | EKVX > 10 µM | CCRF-CEM > 10 µM | DU-145 > 10 µM | OVCAR-5 > 10 µM | U-251 > 10 µM | BT-549 > 10 µM | SR > 10 µM | IGROV-1 > 10 µM | K562 > 10 µM | RPMI-8226 > 10 µM | SK-MEL-5 > 10 µM | UACC-257 > 10 µM | HT-29 > 10 µM | 786-0 > 10 µM | MOLT-4 > 10 µM

O=C(/C=C/c1ccccc1)Oc1ccc(C(=O)/C=C/c2ccc(Cl)cc2)cc1
inactive: SK-MEL-2 > 100 µM | HCC 2998 41.3 µM | SK-MEL-28 > 100 µM | EKVX > 100 µM | CCRF-CEM 17.4 µM | DU-145 59.8 µM | OVCAR-5 > 100 µM | U-251 20.7 µM | BT-549 25.8 µM | SR 3.23 µM | IGROV-1 > 100 µM | K562 87.3 µM | RPMI-8226 43.3 µM | SK-MEL-5 83.4 µM | UACC-257 > 100 µM | HT-29 > 100 µM | 786-0 31.9 µM | MOLT-4 > 100 µM

CCOC(=O)c1cn(C)nc1N/C(C)=C\C(=O)c1ccccc1
inactive: OVCAR-4 > 100 µM | HCC 2998 > 100 µM | SK-MEL-28 > 100 µM | EKVX > 100 µM | CCRF-CEM > 100 µM | DU-145 > 100 µM | OVCAR-5 > 100 µM | U-251 > 100 µM | BT-549 > 100 µM | SR > 100 µM | IGROV-1 > 100 µM | NCI-H522 > 100 µM | K562 > 100 µM | SK-MEL-5 > 100 µM | UACC-257 > 100 µM | HT-29 60.1 µM | 786-0 > 100 µM | MOLT-4 > 100 µM

CCOC(=O)CCCSCCCC(=O)CCCSCCCC(=O)OCC
inactive: OVCAR-4 > 100 µM | HCC 2998 > 100 µM | SK-MEL-28 > 100 µM | EKVX > 100 µM | CCRF-CEM > 100 µM | DU-145 > 100 µM | OVCAR-5 > 100 µM | U-251 > 100 µM | BT-549 > 100 µM | SR > 100 µM | IGROV-1 > 100 µM | NCI-H522 > 100 µM | K562 > 100 µM | SK-MEL-5 > 100 µM | UACC-257 > 100 µM | HT-29 > 100 µM | 786-0 > 100 µM | MOLT-4 > 100 µM

C=C[C@@H](C)[C@H](NS(=O)(=O)c1ccc(C)cc1)C(=O)OCC
inactive: OVCAR-4 27.2 µM | SK-MEL-2 33.3 µM | SK-MEL-28 35.9 µM | EKVX 30.8 µM | CCRF-CEM 28.2 µM | DU-145 37.1 µM | OVCAR-5 26.2 µM | U-251 33.5 µM | BT-549 76.4 µM | SR 30.8 µM | IGROV-1 25.8 µM | NCI-H522 20.6 µM | K562 39.7 µM | RPMI-8226 14 µM | UACC-257 24.9 µM | HT-29 27.2 µM | 786-0 40.8 µM | MOLT-4 50.6 µM

CO[C@H]1C[C@H](n2cc(C)c(=O)[nH]c2=O)O[C@@H]1CO
inactive: OVCAR-4 > 100 µM | HCC 2998 > 100 µM | SK-MEL-28 > 100 µM | EKVX > 100 µM | CCRF-CEM > 100 µM | DU-145 > 100 µM | OVCAR-5 > 100 µM | U-251 > 100 µM | BT-549 > 100 µM | SR > 100 µM | IGROV-1 > 100 µM | K562 > 100 µM | RPMI-8226 > 100 µM | SK-MEL-5 > 100 µM | UACC-257 > 100 µM | HT-29 > 100 µM | 786-0 > 100 µM | MOLT-4 > 100 µM

Cn1c2cn[nH]c(=O)c2c2ccc3ccccc3c21
inactive: OVCAR-4 58.1 µM | SK-MEL-2 18.2 µM | EKVX 3.6 µM | CCRF-CEM 59.2 µM | DU-145 59.3 µM | OVCAR-5 > 100 µM | U-251 19.9 µM | BT-549 42.9 µM | SR 35.9 µM | IGROV-1 11.7 µM | NCI-H522 16.9 µM | K562 86.1 µM | RPMI-8226 60.3 µM | SK-MEL-5 31.5 µM | UACC-257 > 100 µM | HT-29 37.3 µM | 786-0 7.62 µM | MOLT-4 27.2 µM

CC1=NN(C(=O)CC(=O)NC(=O)/C=C\c2ccccc2)C(=O)C1/N=N/c1ccc([N+](=O)[O-])cc1 (configuration not stated)
inactive: HCC 2998 > 100 µM | SK-MEL-28 > 100 µM | EKVX 46.9 µM | CCRF-CEM 42 µM | DU-145 55.7 µM | OVCAR-5 > 100 µM | U-251 35.3 µM | BT-549 19.1 µM | SR > 10 µM | IGROV-1 58.3 µM | K562 53.2 µM | RPMI-8226 85.5 µM | HT-29 > 100 µM | 786-0 83.8 µM | MOLT-4 60.1 µM

Cc1nn(-c2ccccc2)c2nc(S)cnc12
inactive: OVCAR-4 > 100 µM | SK-MEL-2 > 100 µM | SK-MEL-28 > 100 µM | EKVX > 100 µM | CCRF-CEM > 100 µM | DU-145 > 100 µM | OVCAR-5 > 100 µM | U-251 > 100 µM | BT-549 > 100 µM | SR > 100 µM | IGROV-1 > 100 µM | NCI-H522 > 100 µM | K562 > 100 µM | RPMI-8226 89.5 µM | UACC-257 > 100 µM | HT-29 > 100 µM | 786-0 > 100 µM | MOLT-4 > 100 µM

CCOC(=O)C1=C(C)OC(=O)[C@@]2(OC)C=C(Cl)[C@@]12C
inactive: OVCAR-4 > 100 µM | HCC 2998 > 100 µM | SK-MEL-28 > 100 µM | EKVX > 100 µM | CCRF-CEM > 100 µM | DU-145 > 100 µM | OVCAR-5 > 100 µM | U-251 > 100 µM | BT-549 > 100 µM | SR > 100 µM | IGROV-1 > 100 µM | NCI-H522 > 100 µM | K562 > 100 µM | RPMI-8226 > 100 µM | SK-MEL-5 > 100 µM | UACC-257 > 100 µM | HT-29 > 100 µM | 786-0 > 100 µM | MOLT-4 > 100 µM
